Tested on: ovarian cancer cell lines
Experiment: Cell growth inhibition (viable cell count, trypan blue exclusion) of ovarian cancer cell lines after seven days with inhibitor; logIC50 modelled against alteration status
Type: cell-based, human
Conditions: for increased sensitivity to PARP inhibition: from difference of mean log IC50
Description: To begin to understand the relationship between genomic, epigenetic and expression alterations and response to pathway inhibitors, a screening platform was developed for evaluating cellular proliferation in the presence of candidate therapeutic agents. As an example of the analyses that can be performed and the genotype-phenotype connections that can be obtained, IC20, IC50, and IC80 were measured after seven days of incubation for three inhibitors, GNE-493, BMN673, and MEK162, targeting PI3K, PARP, and MEK proteins, respectively (Table 11). Aggregating the molecular information from multiple platforms to the gene level, analyses was limited to genes that were altered in three or more of the 45 cell lines. Alterations that tend to be mutually exclusive between cell lines were combined, including genes in the PI3K pathway (PIK3CA and PPP2R1A) and the genes in the TGFBR pathway (SMAD3 and SMAD4). As tumors with homologous recombination deficiencies (HRD) have been known to be sensitive to PARP inhibitors, covariates summarizing the extent of genome-wide structural alterations for the PARP inhibitor BMN673 were additionally added. A priori it was hypothesized that most alterations would not modulate response to the targeted inhibitors. Implementing a Bayesian model averaging approach to variable selection as has been considered for other biomarkers (see, e.g., Viallefont et al., 2001 Statistics in Medicine 20:3215-3230; Neto et al., 2014 Pacific Symposium on Biocomputing. Pacific Symposium on Biocomputing: 27-38; and Meisner et al., 2018 Biomarker research 6:3), a positive prior probability that the coefficient for each gene is exactly zero was specified. Given the genes or combination of genes and structural variant summaries, the space of possible single- and multi-variate models for logIC50 was explored by Markov Chain Monte Carlo. Relevant posterior summaries available for each inhibitor include the probability that the regression coefficient is non-zero and the posterior distribution of the regression coefficients.
Cell lines were obtained from multiple sources (Table 1). Cells were plated into 24-well tissue culture plates at a density of 2×10^5 to 5×10^5 cells per well and grown in cell-line-specific medium without or with increasing concentrations of their respective drugs (ranging between […]).
Cells were counted on day 7 using an automated cell viability assay (Vi-CELL XR Cell Viability Analyzer, Beckman Coulter, Fullerton, Calif., USA), a video imaging system that uses an automated trypan blue exclusion protocol. Both adherent and floating viable cells were counted for treatment and control wells. Growth inhibition (GI) was calculated as a percentage of untreated controls. The log of the fractional GI was then plotted against the log of the drug concentration and the IC50 values were interpolated from the resulting linear regression curve fit (CalcuSyn; Biosoft, Ferguson, Mo., USA). Experiments were performed thrice in duplicate for each cell line.
Bayesian model averaging: models of the form
were considered where Ci denotes the logIC50 and xi;j an indicator for the alteration status (0 not altered, 1 altered) of feature j in cell line i. The regression coefficient for feature j is the product of a binary indicator zj and a real number hj. A modified g-prior was used for γ such that γj was zero whenever zj was zero. For the vector of γ's with non-zero z's, a multivariate normal prior was used. The space of the possible 2p models was explored using a Gibbs sampler. The binary features comprising the x's included somatic mutations, somatic structural variants (deletions, amplifications, in-frame fusions), methylation, and under- or over-expression. For the PARP inhibitor, the number of intra-chromosomal rearrangements and the HRD score as potential markers for HRD were additionally considered. […]

## Cn1ncnc1[C@H]1c2n[nH]c(=O)c3cc(F)cc(c23)N[C@@H]1c1ccc(F)cc1 [BMN673, talazoparib]
Cell lines with MYC amplification vs without, 90% CI: 99%-64%
  increased sensitivity to PARP inhibition: 93%
Cell lines with inactivating BRCA1/2 mutations, HRD score, PARP1 expression
  association with sensitivity to PARP inhibition: trend towards increased sensitivity to PARP inhibition but were not statistically significant
Cell lines with increased number of genome-wide rearrangements vs without, 90% CI, 96%-43%
  increased sensitivity to PARP inhibition: 86%

## Cn1cnc2c(F)c(Nc3ccc(Br)cc3F)c(C(=O)NOCCO)cc21 [MEK-162, binimetinib]
Cell lines with mutations or deletions in SMAD3 or SMAD4
  increased sensitivity: 89%

## CC(C)(O)c1cc2nc(-c3cnc(N)nc3)nc(N3CCOCC3)c2s1 [GNE-493]
Cancer cell lines with mutations in PARP1 or PPP2R1A (so in the source)
  increased sensitivity: 66%
Cell lines with mutations in PIK3CA or PPP2R1A vs without, 7 days incubation
  difference in mean logIC50 by alteration status: −0.63
Cell lines with mutations in PIK3CA or PPP2R1A vs without, FIG. 6B legend, 90% HPD: 5-72
  increased sensitivity to the inhibitor: 48%
